# Biological target: T1, Carboxypeptidase A1 (Bos taurus, UniProt P00730)
# T1 sequence (P00730 whole entry): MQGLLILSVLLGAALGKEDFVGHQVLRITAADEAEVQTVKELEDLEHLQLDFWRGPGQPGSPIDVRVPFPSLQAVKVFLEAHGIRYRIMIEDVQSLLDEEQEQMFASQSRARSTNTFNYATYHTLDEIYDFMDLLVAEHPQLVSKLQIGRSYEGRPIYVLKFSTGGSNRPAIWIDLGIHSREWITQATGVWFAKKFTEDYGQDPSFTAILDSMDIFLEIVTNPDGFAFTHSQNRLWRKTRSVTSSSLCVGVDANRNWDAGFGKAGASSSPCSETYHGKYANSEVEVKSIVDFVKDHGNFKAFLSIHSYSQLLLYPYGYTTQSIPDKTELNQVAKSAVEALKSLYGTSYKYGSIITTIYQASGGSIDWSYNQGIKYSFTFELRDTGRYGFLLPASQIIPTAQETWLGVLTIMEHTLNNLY
# Test: Compound was evaluated for binding affinity against carboxypeptidase A (CPA), expressed as inhibitory constant (Ki)
row,Ki,SMILES
1,0.16 µM,O=C(O)C(CS)Cc1ccc(Cl)cc1 (centres undefined)
2,0.105 µM,CC(c1ccccc1)C(CS)C(=O)O (centres undefined)
3,1.5 µM,CCC(c1ccccc1)C(CS)C(=O)O (centres undefined)
4,0.15 µM,O=C(O)C(CS)Cc1ccc(Br)cc1 (centres undefined)

# — ChEMBL document CHEMBL1125993, “The function of S1 subsite pocket of carboxypeptidase A” (Bioorg Med Chem Lett, 1991)
